Columns and labels:
Experiment in all cases: combination Emax (second highest fraction inhibited in the dose matrix, 72 h); higher = more inhibition; extreme values may be limits of the assay
[1] = system: MEG-01 (Chronic Myelogenous Leukemia)
How it was run: (§1)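 Bliss excess equals the observed combination effect minus the expected value EA + EB − EA·EB, where EA and EB are the effects of each agent alone. Combination Emax is the second-highest inhibition within the matrix. Inhibition was scaled from CellTiter-Glo 2.0 luminescence, with 0 set by vehicle wells and 1 by blank wells, after 72 hours of two-drug dosing of cells plated in 1536-well plates.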

[2] = system: WSU-DLCL2 (B-Cell Non-Hodgkin's Lymphoma)
How it was run: as §1

[3] = system: JHH-6 (Hepatocellular Carcinoma)
How it was run: as §1

EW-22 (Ewing's Sarcoma) = system: EW-22 (Ewing's Sarcoma)
How it was run: as §1

[4] = system: SK-UT-1 (Other Solid Carcinomas)
How it was run: as §1

[5] = system: SW948 (Colorectal Carcinoma)
How it was run: as §1

MCF7 (Breast Carcinoma) = system: MCF7 (Breast Carcinoma)
How it was run: as §1

[6] = system: SW48 (Colorectal Carcinoma)
How it was run: as §1

[7] = system: DOK (Oral Cavity Carcinoma)
How it was run: as §1

[8] = system: HCC-827 (Lung Adenocarcinoma)
How it was run: as §1

HCC38 (Breast Carcinoma) = system: HCC38 (Breast Carcinoma)
How it was run: as §1

A172 (Glioblastoma) = system: A172 (Glioblastoma)
How it was run: as §1

CS1 (Chondrosarcoma) = system: CS1 (Chondrosarcoma)
How it was run: as §1

[9] = system: SK-LMS-1 (Other Solid Carcinomas)
How it was run: as §1

SK-MEL-1 (Melanoma) = system: SK-MEL-1 (Melanoma)
How it was run: as §1

[10] = system: D-283MED (Other Solid Carcinomas)
How it was run: as §1

H4 (Low Grade Glioma) = system: H4 (Low Grade Glioma)
How it was run: as §1

[11] = system: ETK-1 (Biliary Tract Carcinoma)
How it was run: as §1

[12] = system: TYK-nu (Ovarian Carcinoma)
How it was run: as §1

Structure (SMILES)	combination Emax [1]	combination Emax [2]	combination Emax [3]	combination Emax (EW-22 (Ewing's Sarcoma))	combination Emax [4]	combination Emax [5]	combination Emax (MCF7 (Breast Carcinoma))	combination Emax [6]	combination Emax [7]	combination Emax [8]	combination Emax (HCC38 (Breast Carcinoma))	combination Emax (A172 (Glioblastoma))	combination Emax (CS1 (Chondrosarcoma))	combination Emax [9]	combination Emax (SK-MEL-1 (Melanoma))	combination Emax [10]	combination Emax (H4 (Low Grade Glioma))	combination Emax [11]	combination Emax [12]
NC1(C(=O)N[C@@H](CCO)c2ccc(Cl)cc2)CCN(c2ncnc3[nH]ccc23)CC1 [Capivasertib] + COc1nnc2ccc(N3CCC(c4ccc(OCCN5CCN(C)C(=O)[C@H]5C)cc4)CC3)nn12 [AZD5153] (first compound max 10 µM, 7x7, partner max 1 µM)	0.877	1	0.645	0.834	0.658	0.699	0.754	0.828	0.768	0.481	0.461	0.472	0.455	0.609	0.681	0.771	0.744	0.503	0.632
NC1(C(=O)N[C@@H](CCO)c2ccc(Cl)cc2)CCN(c2ncnc3[nH]ccc23)CC1 [Capivasertib] + C[C@@H]1COCCN1C2=NC(=NC(=C2)C3(CC3)[S@](=N)(=O)C)C4=C5C=CNC5=NC=C4 [AZD6738] (first compound max 10 µM, 7x7, partner max 10 µM)	0.945	1	0.506	0.908	0.829	0.675	0.731	0.759	0.601	0.576	0.621	0.779	0.621	0.566	0.296	0.975	0.809	0.695	0.728
NC1(C(=O)N[C@@H](CCO)c2ccc(Cl)cc2)CCN(c2ncnc3[nH]ccc23)CC1 [Capivasertib] + Cn1cnc2c(F)c(Nc3ccc(Br)cc3Cl)c(C(=O)NOCCO)cc21 [Selumetinib] (first compound max 10 µM, 7x7, partner max 10 µM)	0.825	1	0.458	0.543	0.447	0.829	0.519	0.556	0.931	0.6	0.29	0.48	0.502	0.668	0.874	0.548	0.61	0.48	0.667
Cc1nc(Nc2ncc(C(=O)Nc3c(C)cccc3Cl)s2)cc(N2CCN(CCO)CC2)n1 [Dasatinib] + CC(=O)Nc1cccc(-n2c(=O)n(C3CC3)c(=O)c3c(Nc4ccc(I)cc4F)n(C)c(=O)c(C)c32)c1 [Trametinib] (first compound max 2 µM, 7x7, partner max 1 µM)	1	0.432	0.611	0.0877	0.344	0.764	0.112	0.959	0.904	0.947	0.285	0.512	0.568	0.645	0.854	0.419	0.393	0.781	0.71
COc1cc2ncnc(Nc3ccc(F)c(Cl)c3)c2cc1OCCCN1CCOCC1 [Gefitinib] + CC(C)n1c(=O)n(C)c2cnc3cc(F)c(-c4ccc(OCCCN5CCCCC5)nc4)cc3c21 [AZD1390] (first compound max 10 µM, 7x7, partner max 0.3 µM)	0.11	0.128	0.144	0.244	0.0993	0.162	0.0973	0.399	0.382	0.766	0.109	0.169	0.201	0.12	0.43	0.425	0.121	0.576	0.197
CS(=O)(=O)CCNCc1ccc(-c2ccc3ncnc(Nc4ccc(OCc5cccc(F)c5)c(Cl)c4)c3c2)o1 [Lapatinib] + C[C@@H](Oc1cc(-c2cnn(C3CCNCC3)c2)cnc1N)c1c(Cl)ccc(F)c1Cl [Crizotinib] (first compound max 10 µM, 7x7, partner max 10 µM)	0.992	0.924	0.683	0.887	0.511	0.819	0.981	0.911	0.979	0.896	0.556	0.941	0.797	0.864	0.954	0.985	0.944	0.958	0.719
